Reference: US20070197602A1, “Combined pharmaceutical composition” (priority 2004, published 2007)

Tested on: streptozotocin-induced diabetic model
Assay: Test Example 3: sucrose loading in streptozotocin-induced diabetic model, plasma glucose (GLU)
Format: in vivo, rat
Details: STZ rats; for GLU concentration before loading: Day 23, after oral once a day for 9 days, plasma glucose; for GLU concentration before loading / GLU concentration after loading / Rate of Change (GLU concentration after loading relative to before loading): metformin 50 mg/kg, voglibose 0.2 mg/kg, fenofibrate 50 mg/kg; for GLU concentration after loading: Day 24, 60 minutes after sucrose 2.5 g/kg oral given immediately after test article; for blood sugar level change by the sucrose loading (in words) / Rate of Change (GLU concentration after loading relative to before loading): sucrose loading 2.5 g/kg; for blood sugar level change by the sucrose loading (in words): STZ-treated control increased about 20%
Protocol: At 13 days after administration (Day 13), blood was collected from the rats, and plasma glucose (GLU) concentration was measured. […] From Day 14 (14 days after STZ administration), test articles shown in Table 1 were orally administered to the rats once a day for 9 days. At 23 days after STZ administration (Day 23), the GLU concentration was measured (previous value: GLU concentration before sucrose loading) (incidentally, the test articles were not administered on Day 23). […] Moreover, “N” represents the number of rats for determining the GLU concentration in the Table.

SMILES | GLU concentration before loading [g/L] | GLU concentration after loading [g/L] | blood sugar level change by the sucrose loading (in words) | Rate of Change (GLU concentration after loading relative to before loading) [%]
CN(C)C(=N)N=C(N)N [Metformin] | 4.57 ± 0.36 | 5.41 ± 0.38 | increased | 118.4
CC(C)OC(=O)C(C)(C)Oc1ccc(C(=O)c2ccc(Cl)cc2)cc1 [Fenofibrate] | 4.26 ± 0.55 | 4.78 ± 0.34 | – | –
OCC(CO)N[C@H]1C[C@](O)(CO)[C@@H](O)[C@H](O)[C@H]1O [Voglibose] | 4.30 ± 0.47 | 4.50 ± 0.42 | inhibited | 104.7
